Laboratory results as given in PMC9196953 (Drug development research, 1999).
Where two headings read alike, the source gives them in different places.

Legend:
[1] = biological target: T1, human A2B receptors (Homo sapiens, UniProt P29275); test: Binding at human A2B receptors expressed in HEK-293 cells vs [3H]ZM241385; conditions: for rA1/hA2B: ratio of Ki rat A1 to Ki human A2B
T1 construct: expressed in transfected cells; host or cells: HEK-293
T1 sequence (P29275 1-332): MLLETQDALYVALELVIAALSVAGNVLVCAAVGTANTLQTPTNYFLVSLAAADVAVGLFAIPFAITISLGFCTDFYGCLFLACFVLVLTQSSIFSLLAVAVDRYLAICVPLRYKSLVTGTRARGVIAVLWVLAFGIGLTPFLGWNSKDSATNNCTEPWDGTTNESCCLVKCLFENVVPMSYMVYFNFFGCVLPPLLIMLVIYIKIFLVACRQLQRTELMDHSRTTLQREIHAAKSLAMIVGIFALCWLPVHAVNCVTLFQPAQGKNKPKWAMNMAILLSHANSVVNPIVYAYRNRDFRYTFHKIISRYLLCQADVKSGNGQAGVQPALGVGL
Method: The plasmid was amplified in competent JM109 cells and plasmid DNA isolated using Wizard Megaprep columns (Promega Corp., Madison, WI).
Colonies were selected by growth of cells in 0.6 mg/mL G418. Transfected cells were maintained in DMEM supplemented with Hams F12 nutrient mixture (1/1), 10% newborn calf serum, 2 mM glutamine, and containing 50 IU/mL penicillin, 50 μg/mL streptomycin, and 0.2 mg/mL Geneticin (G418, Boehringer Mannheim, Indianapolis, IN).
Confluent monolayers of HEK-A2B cells were washed with PBS followed by ice-cold Buffer A (10 mM HEPES, 10 mM EDTA, pH 7.4) with protease inhibitors ([…] benzamidine, […], and […] of each aprotinin, pepstatin, and leupeptin). The cells were homogenized in a Polytron (Brinkmann) for 20 sec, centrifuged at 30,000g, and the pellets washed twice with buffer HE (10 mM HEPES, 1 mM EDTA, pH 7.4 with protease inhibitors). The final pellet was resuspended in buffer HE, supplemented with 10% sucrose and frozen in aliquots at −80°C. For binding assays, membranes were thawed and diluted 5–10-fold with HE to a final protein concentration of approximately 1 mg/mL. […] After incubating for 20 min at room temperature, 50 mL of 10 mg/mL Na-metabisulfite in water was added the quench the reaction. The reaction products were applied to a C18 HPLC column using 4 mM phosphate, pH 6.0/methanol. […] The incubation time was 3 h at 21°C. […] Membranes were filtered on Whatman GF/C filters using a Brandell cell harvester (Gaithersburg, MD) and washed three times over 15–20 sec with ice-cold buffer (10 mM Tris, 1 mM MgCl2, pH 7.4). […] Data from replicate experiments are tabulated as means ± SEM.
At A2B receptors, two radioligand binding assays (Table 1) were used. […] In order to evaluate selectivity, selected derivatives were subjected to standard binding assays at A1, A2A, and A3 receptors.

[2] = biological target: T2, human A3 receptors (Homo sapiens, UniProt P0DMS8); test: Binding at recombinant human A3 receptors expressed in HEK-293 cells vs [125I]ABA; conditions: recombinant human A3 in HEK-293 cells, read-out: Ki hA3
T2 construct: expressed in transfected cells; host or cells: HEK-293
T2 sequence (P0DMS8 1-318): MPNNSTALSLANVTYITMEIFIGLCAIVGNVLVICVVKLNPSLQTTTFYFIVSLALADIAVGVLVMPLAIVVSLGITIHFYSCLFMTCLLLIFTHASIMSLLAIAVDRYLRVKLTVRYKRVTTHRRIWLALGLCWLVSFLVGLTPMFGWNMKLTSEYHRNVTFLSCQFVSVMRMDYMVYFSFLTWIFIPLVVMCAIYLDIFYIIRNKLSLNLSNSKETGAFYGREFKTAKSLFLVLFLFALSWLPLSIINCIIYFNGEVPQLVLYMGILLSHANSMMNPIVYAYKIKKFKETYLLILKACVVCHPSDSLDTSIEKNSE
Method: (§1) All nonradioactive compounds were initially dissolved in DMSO and diluted with buffer to the final concentration, where the amount of DMSO never exceeded 2%. Incubations were terminated by rapid filtration over Whatman GF/B filters using a Brandell cell harvester. The tubes were rinsed three times with 3 mL buffer each.
(§2) At least six different concentrations of competitor, spanning 3 orders of magnitude adjusted appropriately for the IC50 value of each compound, were used. IC50 values, calculated with the nonlinear regression method implemented in Graph-Pad Prism (San Diego, CA) were converted to apparent Ki values as described by [Linden [1982]]. Hill coefficients of the tested compounds were in the range of 0.8–1.1.
(§3) At A2B receptors, two radioligand binding assays (Table 1) were used. Ki values of xanthine derivatives were determined in displacement of binding of the non-selective radioligands […], 8 (4-(2-[7-amino-2-{furyl}{1,2,4}triazolo{2,3-a}{1,3,5}tr nzyl)-8-phenyloxyacetate-1-propyl-xanthine), at human A2B receptors expressed in HEK-293 cell membranes [[Linden and Jacobson, 1998]]. In order to evaluate selectivity, selected derivatives were subjected to standard binding assays at A1, A2A, and A3 receptors. The initial screening utilized rat brain A1/A2A receptors (with radioligands [^3H]R-PIA and [^3H]CGS-21680), and selected compounds were examined at the recombinant human subtypes (Table 1), using [^3H]CPX ([^3H]8-cyclopentyl-1,3-dipropylxanthine) and ^125I-ZM 241385, ^125I-4-(2-[7-amino-2-[2-furyl][1,2,4]triazolo[2,3-a][1,3,5]triazin-5-yl-amino]ethyl)phenol) [[Palmer et al., 1996]].

[3] = biological target: T3, human A2A receptors (Homo sapiens, UniProt P29274); test: Binding at recombinant human A2A receptors expressed in HEK-293 cells vs [125I]ZM241385; conditions: recombinant human A2A in HEK-293 cells, read-out: Ki A2A (h) (converted)
T3 construct: expressed in transfected cells; host or cells: HEK-293
T3 sequence (P29274 whole entry): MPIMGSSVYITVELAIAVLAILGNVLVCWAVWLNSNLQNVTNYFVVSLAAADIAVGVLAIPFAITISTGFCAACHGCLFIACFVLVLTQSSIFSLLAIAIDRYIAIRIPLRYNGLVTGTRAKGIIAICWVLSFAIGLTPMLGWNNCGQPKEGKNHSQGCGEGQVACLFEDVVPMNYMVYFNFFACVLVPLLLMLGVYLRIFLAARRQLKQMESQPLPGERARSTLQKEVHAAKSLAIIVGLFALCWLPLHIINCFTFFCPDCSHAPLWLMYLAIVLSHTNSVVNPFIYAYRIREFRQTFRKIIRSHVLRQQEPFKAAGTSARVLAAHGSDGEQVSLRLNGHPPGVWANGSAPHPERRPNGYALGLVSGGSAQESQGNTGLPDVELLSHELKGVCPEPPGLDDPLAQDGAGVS
Method: as §1, §2, §3

[4] = HEK-293 cells, vs [3H]ZM241385, read-out: Ki hA2B

| Structure (SMILES) | Ki [1, 4] [nM] | rA1/hA2B [1] | Ki [2] [nM] | Ki [3] [nM] | selectivity for human A2B vs. human A1 receptors ([1]; human A2B vs human A1) [fold] | selectivity for human A2B vs. human A2A receptors ([1]; human A2B vs human A2A) [fold] | selectivity for human A2B vs. human A3 receptors ([1]; human A2B vs human A3) [fold] | Ki ([1]; rounded values given in text, read-out: Ki at human A2B receptors) [nM] |
| --- | --- | --- | --- | --- | --- | --- | --- | --- |
| CCCn1c(=O)c2[nH]c(-c3ccc(OCC(=O)NNC(=O)CCC(=O)O)cc3)nc2n(CCC)c1=O [Compound 9, 8-[4-[(Carboxymethyl)oxy]phenyl]-1,3-di-(n-propyl)xanthine N-[(3-Carboxy)-n-propionyl]hydrazide] | 116 ± 10 |  | 173 ± 27 | 795 |  |  |  |  |
| CCCn1c(=O)c2[nH]c(-c3ccc(OCC(=O)NN4C(=O)C(C)=C(C)C4=O)cc3)nc2n(CCC)c1=O [Compound 14, 8-[4-[(Carboxymethyl)oxy]phenyl]-1,3-di-(n-propyl)xanthine N,N-[(1,2-Dimethyl)maleyl]hydrazide] | 19.4 ± 6.2 | 0.57 | 670 ± 154 | 1970 | 160 | 100 | 35 | 19 |
| CCCn1c(=O)[nH]c(=O)c2[nH]c(-c3ccc(OCC(=O)NN4C(=O)C(C)=C(C)C4=O)cc3)nc21 [Compound 15, 8-[4-[(Carboxymethyl)oxy]phenyl]-1H-3-(n-propyl)xanthine N,N-[(1,2-Dimethyl)maleyl]hydrazide] | 1800 | 2.0 | 14200 | 5480 |  |  |  |  |
| CCCn1c(=O)c2[nH]c(-c3ccc(OCC(=O)NN4C(=O)c5ccccc5C4=O)cc3)nc2n(CCC)c1=O [Compound 21, 8-[4-[(Carboxymethyl)oxy]phenyl]-1,3-di-(n-propyl)xanthine N,N-Phthaloylhydrazide] | 64.4 ± 0.8 | 0.41 | 147 ± 21 | 359 |  |  |  |  |

The remaining lines, values ahead:

| Ki [1, 4] [nM] | rA1/hA2B [1] | Ki [2] [nM] | Ki [3] [nM] | selectivity for human A2B vs. human A1 receptors ([1]; human A2B vs human A1) [fold] | selectivity for human A2B vs. human A2A receptors ([1]; human A2B vs human A2A) [fold] | selectivity for human A2B vs. human A3 receptors ([1]; human A2B vs human A3) [fold] | Ki ([1]; rounded values given in text, read-out: Ki at human A2B receptors) [nM] | Structure (SMILES) |
| --- | --- | --- | --- | --- | --- | --- | --- | --- |
| 18.7 ± 0.5 | 2.8 | 48.5 ± 0.8 | 342 |  |  |  |  | CCCn1c(=O)c2[nH]c(-c3ccc(OCC(=O)OCC)cc3)nc2n(CCC)c1=O [Compound 4b] |
| 65.4 ± 6.5 | 0.10 | 30.9 ± 8.2 | 186 |  |  |  |  | CCCn1c(=O)c2[nH]c(-c3ccc(OCC(=O)NNC(C)=O)cc3)nc2n(CCC)c1=O [Compound 4e, 8-[4-[(Carboxymethyl)oxy]phenyl]-1,3-di-(n-propyl)xanthine N-Acetylhydrazide] |
